# Measured values from patent publication US20040033972A1, “Treatment of mycobacterium tuberculosis with antisense polynucleotides” (priority 2002, published 2004).
# Where two headings read alike, the source gives them in different places. Where a SMILES comes first, the peptide text is derived from it.
# Legend:
# M. tuberculosis Erdman [1] = test: Growth of M. tuberculosis Erdman broth cultures (colony forming units); assay type: cell-based
# M. tuberculosis Erdman [2] = tested on: M. tuberculosis Erdman
# M. smegmatis 1-2c [3] = tested on: M. smegmatis 1-2c
# [4] = target: extracellular glutamine synthetase (Mycobacterium tuberculosis, UniProt P9WN39); details: 20 μM; cited from earlier work
# Chain of extracellular glutamine synthetase (P9WN39 2-478 limits assumed): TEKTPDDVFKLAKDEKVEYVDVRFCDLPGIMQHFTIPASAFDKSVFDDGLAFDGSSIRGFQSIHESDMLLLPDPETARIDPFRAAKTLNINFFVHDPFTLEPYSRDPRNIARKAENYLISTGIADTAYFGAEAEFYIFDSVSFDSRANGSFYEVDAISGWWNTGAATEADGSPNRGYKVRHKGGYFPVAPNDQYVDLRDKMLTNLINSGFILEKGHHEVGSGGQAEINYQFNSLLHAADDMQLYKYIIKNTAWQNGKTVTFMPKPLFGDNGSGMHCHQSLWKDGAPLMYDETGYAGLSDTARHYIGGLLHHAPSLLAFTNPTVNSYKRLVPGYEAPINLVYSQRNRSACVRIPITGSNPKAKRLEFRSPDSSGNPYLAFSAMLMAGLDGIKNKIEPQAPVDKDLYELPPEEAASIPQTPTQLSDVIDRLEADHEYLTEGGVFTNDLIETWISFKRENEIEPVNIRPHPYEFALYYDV
# [5] = tested on: poly-L-glutamate/glutamine cell wall structure; details: 20 μM; cited from earlier work
# M. tuberculosis = details: cited from earlier work
# M. tuberculosis Erdman [6] = test: microbe, parasite or virus in culture; details: Mycobacterium tuberculosis
# M. smegmatis 1-2c [7] = test: microbe, parasite or virus in culture; details: Mycolicibacterium smegmatis, 12C
smiles,measurement,setting,value
NCC[C@H](O)C(=O)N[C@@H]1C[C@H](N)[C@@H](O[C@H]2O[C@H](CN)[C@@H](O)[C@H](O)[C@H]2O)[C@H](O)[C@H]1O[C@H]1O[C@H](CO)[C@@H](O)[C@H](N)[C@H]1O [amikacin],antibacterial effect of free amikacin,M. tuberculosis Erdman [1]; 1 μM,bacteriostatic
same,antibacterial effect of free amikacin,M. tuberculosis Erdman [1]; 5.8 μg per ml (10 μM),strongly bactericidal
"CC(C)C[C@@H]1NC(=O)[C@@H](Cc2ccccc2)NC(=O)[C@H](CCN)NC(=O)[C@@H](NC(=O)[C@H](CCN)NC(=O)[C@@H](N)[C@@H](C)O)CCNC(=O)[C@H]([C@@H](C)O)NC(=O)[C@H](CCN)NC(=O)[C@H](CCN)NC1=O [polymyxin B nonapeptide] (HELM PEPTIDE1{T.[Dab].[Dab].[Dab].[dF].L.[Dab].[Dab].T}$PEPTIDE1,PEPTIDE1,3:R3-9:R2$$$V2.0; N-terminus assumed)",MIC,M. tuberculosis Erdman [2],~5 µg/mL
same,MIC,M. smegmatis 1-2c [3],~5 µg/mL
CS(=N)(=O)CC[C@H](N)C(=O)O (stereo partly drawn) [L-methionine-S-sulfoximine],reduction of extracellular glutamine synthetase activity,[4],80%
same,reduction of the amount of the poly-L-glutamate/glutamine cell wall structure,[5],93%
same,inhibition of bacterial growth,M. tuberculosis; 2 μM,1.5-2 log units
same,reduction of bacterial growth,M. tuberculosis; 20 μM,≥ 2.5 log units
CC[C@@H](CO)NCCN[C@@H](CC)CO [ethambutol],MIC,M. tuberculosis Erdman [6],~5 µg/mL
same,MIC,M. smegmatis 1-2c [7],~0.01 µg/mL
